For experiment [1], the target named is T1, human P2X4 receptor (Homo sapiens, UniProt Q99571).
T1 sequence (Q99571 1-388): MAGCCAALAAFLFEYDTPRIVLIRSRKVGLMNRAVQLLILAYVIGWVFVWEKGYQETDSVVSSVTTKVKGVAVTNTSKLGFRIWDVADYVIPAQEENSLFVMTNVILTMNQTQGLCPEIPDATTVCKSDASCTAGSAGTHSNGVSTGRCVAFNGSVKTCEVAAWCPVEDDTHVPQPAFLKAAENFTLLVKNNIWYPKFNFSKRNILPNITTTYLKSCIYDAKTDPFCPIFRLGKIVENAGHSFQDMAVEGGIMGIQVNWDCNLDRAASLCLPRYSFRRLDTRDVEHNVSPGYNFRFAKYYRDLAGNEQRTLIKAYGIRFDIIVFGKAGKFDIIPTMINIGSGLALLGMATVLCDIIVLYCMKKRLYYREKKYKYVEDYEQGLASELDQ
The experiment can be described thus: [3H]PSB-OR-2020 radioligand binding assay, HEK293 cell membranes expressing human P2X4 receptor. The arrangement: expressed in transfected cells; host or cells: HEK293 cells, transient transfection (pQCXIN; pcDNA3.1(-) was also tried).

For another experiment, the system named is P2X4. Further details: method as in PMID 30537520, PMID 34476721. The settings on record: ref [14], [36]; cited from earlier work.
Experiment [2] deals with T1, human P2X4 receptor. Further details: expressed in transfected cells; host or cells: HEK293 cells, transient transfection (pQCXIN; pcDNA3.1(-) was also tried). Conditions: ref Müller et al. [36]; cited from earlier work.
For experiment [3], the system named is P2X4 receptor. Further details: method as in PMID 36150180. Conditions: ref [38]; cited from earlier work.
Experiment [4] concerns the target T1, human P2X4 receptor. The experiment can be described thus: Calcium influx assay, 1321N1 astrocytoma cells stably expressing human P2X4 receptor. The class given is cell-based. The arrangement: expressed in transfected cells. The method, then: Calcium influx assays using 1321N1 astrocytoma cells that stably expressed the human P2X4 receptor were performed. Concentration-dependent inhibition of ATP-induced calcium influx was observed.
(§1) To determine the effects of the compound on P2X4, P2X2, and P2X7 receptors, the agonist-mediated increases in cytosolic Ca^2+ concentrations were measured using the fluorescent Ca^2+ chelating dye Fluo-4 acetoxymethyl ester (AM) (Thermo Fisher Scientific). On the first day, 1321N1 astrocytoma cells (45.000 cells/well) stably expressing the respective P2X receptor were seeded into a 96-well plate (No. 3340, Corning, Kennebunk, Maine, USA), and incubated at 37 °C and 10% of CO2. […]
(§2) Following the incubation, the dye solution was carefully removed, and the antagonist (dissolved in DMSO) and HBSS buffer were added to the cells. […] To activate the receptors, transparent 96-well reagent plates (Boettger, Bodenmais, Germany) containing the agonists dissolved in HBSS buffer (10-fold concentration of previously determined EC80) were prepared. The plates were measured after 30 min of preincubation with antagonist with the imaging plate reader NOVOstar (BMG Labtech GmbH, Offenburg, Germany) at 520 nm for 30 s at 0.4 s intervals.

For a further experiment, the target named is T2, human P2X1 (Homo sapiens, UniProt P51575).
T2 construct: expressed in transfected cells
T2 sequence (P51575 1-399): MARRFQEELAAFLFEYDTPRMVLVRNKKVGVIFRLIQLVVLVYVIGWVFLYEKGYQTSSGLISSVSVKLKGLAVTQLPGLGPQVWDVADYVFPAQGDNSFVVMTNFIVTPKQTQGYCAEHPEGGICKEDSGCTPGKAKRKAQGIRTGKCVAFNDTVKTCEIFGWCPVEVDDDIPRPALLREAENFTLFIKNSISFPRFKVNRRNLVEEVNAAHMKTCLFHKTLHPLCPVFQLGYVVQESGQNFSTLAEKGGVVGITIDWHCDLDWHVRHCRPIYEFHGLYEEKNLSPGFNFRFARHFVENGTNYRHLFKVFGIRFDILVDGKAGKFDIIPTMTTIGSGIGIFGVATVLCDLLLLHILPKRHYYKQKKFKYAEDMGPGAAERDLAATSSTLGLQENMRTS
The experiment in a line: Calcium influx assay, 1321N1 astrocytoma cells stably expressing human P2X1 receptor. Type of experiment: cell-based. The method, then: (§3) The selectivity of PSB-OR-2020 versus other P2X receptor subtypes was determined in the same type of assay using 1321N1 astrocytoma cells stably expressing the respective human P2X receptor subtype (see Table 1).
as §1, §2

The next experiment concerns the target T3, human P2X2 (Homo sapiens, UniProt Q9UBL9).
T3 construct: expressed in transfected cells
T3 sequence (Q9UBL9 1-471): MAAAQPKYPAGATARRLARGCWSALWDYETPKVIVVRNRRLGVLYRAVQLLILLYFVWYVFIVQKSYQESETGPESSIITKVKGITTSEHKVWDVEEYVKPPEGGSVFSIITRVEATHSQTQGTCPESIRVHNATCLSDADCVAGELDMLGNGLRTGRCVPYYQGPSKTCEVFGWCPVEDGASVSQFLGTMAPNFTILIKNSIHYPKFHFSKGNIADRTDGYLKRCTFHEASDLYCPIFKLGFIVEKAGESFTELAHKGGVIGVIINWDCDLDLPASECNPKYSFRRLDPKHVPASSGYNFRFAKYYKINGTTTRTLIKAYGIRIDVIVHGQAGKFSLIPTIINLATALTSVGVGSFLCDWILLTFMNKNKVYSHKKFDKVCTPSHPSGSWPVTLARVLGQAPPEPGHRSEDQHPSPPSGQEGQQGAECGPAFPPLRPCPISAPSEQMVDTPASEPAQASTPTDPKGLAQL
The experiment can be described thus: Calcium influx assay, 1321N1 astrocytoma cells stably expressing human P2X2 receptor. The class given is cell-based.

A further experiment concerns the target T4, human P2X3 (Homo sapiens, UniProt P56373).
T4 construct: expressed in transfected cells
T4 sequence (P56373 1-397): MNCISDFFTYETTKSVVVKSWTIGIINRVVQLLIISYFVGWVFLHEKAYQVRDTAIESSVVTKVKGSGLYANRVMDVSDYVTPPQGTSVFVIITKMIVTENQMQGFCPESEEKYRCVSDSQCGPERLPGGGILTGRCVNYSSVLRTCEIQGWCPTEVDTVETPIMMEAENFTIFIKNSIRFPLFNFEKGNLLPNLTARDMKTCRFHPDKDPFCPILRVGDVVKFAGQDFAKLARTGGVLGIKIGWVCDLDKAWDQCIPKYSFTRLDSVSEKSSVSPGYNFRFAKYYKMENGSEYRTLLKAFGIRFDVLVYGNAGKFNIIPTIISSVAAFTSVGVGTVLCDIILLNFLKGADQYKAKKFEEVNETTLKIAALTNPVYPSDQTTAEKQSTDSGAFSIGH
The experiment can be described thus: Calcium influx assay, 1321N1 astrocytoma cells stably expressing human P2X3 receptor. Type of experiment: cell-based. The method, then:
as §3, §1, §2

Another experiment concerns the target T5, human P2X7 (Homo sapiens, UniProt Q99572).
T5 construct: expressed in transfected cells
T5 sequence (Q99572 1-595): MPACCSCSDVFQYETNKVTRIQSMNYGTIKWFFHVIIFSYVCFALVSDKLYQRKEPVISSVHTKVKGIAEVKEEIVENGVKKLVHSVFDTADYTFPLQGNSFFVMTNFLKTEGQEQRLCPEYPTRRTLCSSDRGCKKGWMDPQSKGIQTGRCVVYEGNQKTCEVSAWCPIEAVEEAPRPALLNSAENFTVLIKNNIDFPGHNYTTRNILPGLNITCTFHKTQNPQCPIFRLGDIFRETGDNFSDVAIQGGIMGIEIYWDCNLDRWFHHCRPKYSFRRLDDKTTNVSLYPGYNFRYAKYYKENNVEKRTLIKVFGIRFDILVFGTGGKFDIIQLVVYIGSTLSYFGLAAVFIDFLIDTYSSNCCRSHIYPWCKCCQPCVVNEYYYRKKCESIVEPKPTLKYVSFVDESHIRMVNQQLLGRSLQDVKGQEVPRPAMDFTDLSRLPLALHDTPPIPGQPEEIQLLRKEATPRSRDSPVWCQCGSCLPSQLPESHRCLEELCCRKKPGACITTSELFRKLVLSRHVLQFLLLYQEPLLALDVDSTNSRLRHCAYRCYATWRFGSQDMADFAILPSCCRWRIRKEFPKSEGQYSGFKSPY
The experiment can be described thus: Calcium influx assay, 1321N1 astrocytoma cells stably expressing human P2X7 receptor (agonist Bz-ATP). Conditions: Bz-ATP 6,000 nM (EC80). Type of experiment: cell-based. The procedure: as §3, §1, §2

Experiment [5] relates to P2X4 receptor. The arrangement: method as in PMID 35338432. The settings on record: ref [44]; cited from earlier work.
[6] abbreviates: high concentration of competitor, radioligand 10 nM.
Setting [7] is: 4 °C, three independent association and dissociation experiments, read-out: kinetic KD value (koff/kon).
The mark [8] stands for this setting: vs. [3H]PSB-OR-2020 (10 nM), HEK293 membranes, human P2X4, read-out: KD value, homologous competition binding.
Setting [9] is: 4 °C, radioligand 10 nM, HEK293 membranes, human P2X4.

The values that follow come from paper PMC11555173, “Preparation and preliminary evaluation of a tritium-labeled allosteric P2X4 receptor antagonist” (Purinergic Signalling, 2024).

Molecules are shown by their SMILES. Entries after “also recorded” stand apart in the source; their conditions may differ. Where two headings read alike, the source gives them in different places.

What is called IC50 is the concentration at which inhibition is half-maximal. For the compound `Cc1nsc(-c2ccc(C)c(NCC(=O)c3c[nH]c4ccccc34)c2)n1` [PSB-15417], the “displacement of [3H]PSB-OR-2020 from its binding site” value (shortened to “displacement”) on human P2X4 receptor [1] (setting [6]) is reported as “completely displaced”. Moreover, in the experiment on P2X4, the “efficacy in an animal model of neuropathic pain” value is on record as “showing efficacy”. Further, at human P2X4 receptor [2], the IC50 was 21.9 nM.

On to `O=C1CC(=O)N(c2ccnc(-c3noc(=S)[nH]3)c2)c2ccc3ccccc3c2N1` [MRS4719], for which the “effects in a murine ischemic stroke model” value in the experiment on P2X4 receptor [3] is “neuroprotective and neuro-rehabilitative effects”.

Take `CC(C)c1cc(Br)c(NC(=O)Nc2cccnc2)c(Br)c1` [BX430, reference compound]: the “displacement” value is “not or only partially be displaced” at human P2X4 receptor [1] (setting [6]) and “less than 40%” on human P2X4 receptor [1] (high concentrations of competitor, radioligand 10 nM).

As to `Nc1ncnc2c1ncn2[C@@H]1O[C@H](COP(=O)(O)OP(=O)(O)OP(=O)(O)O)[C@@H](O)[C@H]1O` [ATP, Adenosine 5’-triphosphate, reference compound], the “displacement” value at human P2X4 receptor [1] (setting [6]) is given as “only slightly displaced; also recorded: does not compete”. Moreover, the “EC80 concentration of agonist” value on human P2X4 receptor [4] (human P2X4, calcium influx) was found to be 300 nM.

For the compound `Cc1nsc(-c2ccc(C)c(NCC(=O)N3CCc4c3cccc4[C@](C)(O)CO)c2)n1` [PSB-OR-2020, (S)-1-(4-(1,2-dihydroxypropane-2yl)indolin-1-yl)-2-((2-methyl-5-(3-methyl-1,2,4-thiadiazol-5-yl)phenyl)amino)ethane-1-one], the IC50 was more than 10 µM at human P2X1; 6.32 ± 1.52 nM at human P2X4 receptor [4] (read-out: IC50 ± SEM, inhibition of ATP-induced Ca2+ influx); more than 10 µM at human P2X2; 2030 nM on human P2X3; more than 10 µM on human P2X7. Besides, the Kd on human P2X4 receptor [1] (setting [7]) amounted to 7.06 ± 3.23 nM; on human P2X4 receptor [1] (setting [8]) it was 20.4 ± 7.5 nM. Moreover, the Bmax value at human P2X4 receptor [1] (homologous competition binding, HEK293 membranes, human P2X4) was 71.7 fmol/mg of protein. For the same compound, the “IC50 at P2X3 receptor relative to IC50 at P2X4 receptor” value at human P2X3 (P2X3 vs P2X4 selectivity) is reported as “about 300 fold”.

`[3H]c1cc2c(c([C@](C)(O)CO)c1)CCN2C(=O)CNc1cc(-c2nc(C)ns2)c([3H])cc1C` [[^3H]PSB-OR-2020] registered an association half-life at human P2X4 receptor [1] (setting [9]) of 8.44 ± 2.59 min. At human P2X4 receptor [1] (setting [9]), this compound came in with a dissociation half-life of 20.4 ± 2.9 min. Moreover, the Kd at human P2X4 receptor [1] (setting [7]) was 7.06 ± 3.23 nM; on human P2X4 receptor [1] (setting [8]), 20.4 nM.

Regarding `O=C1CC(=O)N(c2cccc(-c3noc(=S)[nH]3)c2)c2ccc3ccccc3c2N1` [NP-1815-PX], in the experiment with P2X4 receptor [5], the “effects in a murine model of colitis” value is recorded as “improve several inflammatory parameters”.
